The text below walks through data of patent US20100029752A1, “NOVEL COMPOUNDS, PHARMACEUTICAL COMPOSITIONS CONTAINING SAME, AND METHODS OF USE FOR SAME” (priority 2005, published 2010).

Converted amounts (≈) assume the structure as drawn.

Assay [1] concerns fatty acid synthesis pathway activity in MCF-7 human breast cancer cells. Nature of the assay: [14C]acetate incorporation into total lipids. The note with it: MCF-7 cells, [14C]acetate into lipids; for IC50: Homo sapiens, MCF7. Format: cell-based. How it is done: This assay measures the incorporation of [^14C]acetate into total lipids and is a measure of fatty acid synthesis pathway activity in vitro. It is utilized to measure inhibition of fatty acid synthesis in vitro.
MCF-7 human breast cancer cells cultured as above, are plated at 5×10^4 cells per well in 24-well plates. Following overnight incubation, the compounds to be tested, solubilized in DMSO, are added at 5, 10, and 20 μg/ml in triplicate, with lower concentrations tested if necessary. DMSO is added to triplicate wells for a vehicle control. C75 is run at 5 and 10 μg/ml in triplicate as positive controls. After 4 hours of incubation, 0.25 μCi of [^14C]acetate (10 μl volume) is added to each well.
After 2 hours of additional incubation, medium is aspirated from the wells and 800 μl of chloroform:methanol (2:1) and 700 μl of 4 mM MgCl2 is added to each well. Contents of each well are transferred to 1.5 Eppendorf tubes, and spun at full-speed for 2 minutes in a high-speed Eppendorf Microcentrifuge 5415D. After removal of the aqueous (upper) layer, an additional 700 μl of chloroform:methanol (2:1) and 500 μl of 4 mM MgCl2 are added to each tube and then centrifuged for 1 minutes as above. The aqueous layer is removed with a Pasteur pipette and discarded. An additional 400 μl of chloroform:methanol (2:1) and 200 μl of 4 mM MgCl2 are added to each tube, then centrifuged and aqueous layer is discarded. The lower (organic) phase is transferred into a scintillation vial and dried at 40° C. under N2 gas. Once dried, 3 ml of scintillant (APB #NBC5104) is added and vials are counted for ^14C. The Beckman Scintillation counter calculates the average cpm values for triplicates.
The IC50 for the compounds is defined as the concentration of drug leading to a 50% reduction in [^14C]acetate incorporation into lipids compared to controls. This is determined by plotting the average cpm for each inhibitor concentration tested, performing linear regression and computing the best-fit line, r^2 values, and 95% confidence intervals. The average cpm values are computed by the Beckman scintillation counter (Model LS6500) for each compound concentration. Computation of linear regression, best-fit line, r^2, and 95% confidence intervals are calculated using Prism Version 3.0 (Graph Pad Software).

Assay [2] relates to OV. Nature of the assay: XTT cytotoxicity assay (OV). The assay is classed as cell-based. The note with it: (OV) cells. Here is the method:
The XTT assay is a non-radioactive alternative for the [^51Cr] release cytotoxicity assay. XTT is a tetrazolium salt that is reduced to a formazan dye only by metabolically active, viable cells. The reduction of XTT is measured spectrophotometrically as OD490-OD650. After 72 hours of incubation, cells are incubated for 4 hours with the XTT reagent as per manufacturer's instructions (Cell Proliferation Kit 11 (XTT) Roche). Plates are read at OD490 and OD650 on a Molecular Devices SpectraMax Plus Spectrophotometer. Three wells containing the XTT reagent without cells serve as the plate blank. XTT data are reported as OD490-OD650. Averages and standard error of the mean are computed using SOFTmax Pro software (Molecular Dynamics). The IC50 for the compounds is defined as the concentration of drug leading to a 50% reduction in OD490-OD650 compared to controls. The OD490-OD650 are computed by the SOFTmax PRO software (Molecular Devices) for each compound concentration. IC50 is calculated by linear regression, plotting the FAS activity as percent of control versus drug concentrations. Linear regression, best-fit line, r^2, and 95% confidence intervals are determined using Prism Version 3.0 (Graph Pad Software).
A general note: Tetrazolium assays rely on reduction of a dye to a coloured formazan, in cell work by metabolically active cells.

Broadly, the IC50 is the point on the concentration scale where inhibition reaches its midpoint. Low readings indicate higher potency, high ones lower potency.

Turning to `COC(=O)c1sc(C(=O)O)cc1O`, the IC50 in assay [1] was 55.2 µg/mL (≈ 273 µM); in assay [2] it was > 80 µg/mL.
For `CCCCCCCCNC(=O)c1cc(O)c(C(=O)OC)s1` the same measures were 20.5 µg/mL (≈ 65.4 µM) and 37.1 µg/mL (≈ 118 µM).
As to `C=CCNC(=O)c1cc(O)c(C(=O)OC)s1`, the “14C (IC50)” value in assay [1] was “Neg”. In addition, the concentration for half-maximal inhibition (IC50) in assay [2] was > 80 µg/mL.
For `CCCCCCCCNNC(=O)c1cc(O)c(C(=O)OC)s1`, the IC50 amounted to 41.2 µg/mL (≈ 125 µM) in assay [1] and 77.1 µg/mL (≈ 235 µM) in assay [2].
Regarding `COC(=O)c1sc(C(=O)NNc2ccc(Cl)cc2)cc1O`, the IC50 worked out at 25.2 µg/mL (≈ 77.1 µM) in assay [1] and 50 ± 5 µg/mL (≈ 153 µM) in assay [2].
In the case of `CCCCCCCCNC(=O)c1cc(O)cs1`, the IC50 worked out at 17.6 ± 1.9 µg/mL (≈ 68.9 µM) in assay [1] and 9.5 µg/mL (≈ 37.2 µM) in assay [2].
